Assay results as given in US20100317671A1, “XANTHINE-BASED CYCLIC GMP-ENHANCING RHO-KINASE INHIBITOR INHIBITS PHYSIOLOGICAL ACTIVITIES OF LUNG EPITHELIAL CELL LINE” (KAOHSIUNG MEDICAL UNIVERSITY, priority 2008, published 2010).
Counter-ions that a name gives are not always drawn.

Tests used:
[1] = Body weight change, bleomycin-induced IPF mice; format: in vivo
Description: The six-week old mice are used in this experiment and divided into ten groups as follows. […] The six-week old male C57B1/6 mice are purchased from the National Laboratory Animal Center. […] After being […] pentobarbital in the dose of 0.52 mg/10 g, the mice is kept upright and positioned an otoscope into the larynx for looking into the trachea clearly. The bleomycin is loaded by a loading tip for intratracheal administration.

[2] = tested on: inflammatory cells in the lung lavage; assay: Inflammatory cells in lung lavage, bleomycin-induced IPF mice; format: in vivo; set-up: WBC total (white blood cell total count) / NE (neutrophil) / LY (lymphocyte) / MO (monocyte) / EO (eosinophil) / BA (basophil): unit not given here; settings: lung lavage
Description: The amounts of the total cell, the neutrophill, the lymphocyte, the monocyte, the eosinophill and the basophill are analyzed by an automatic animal blood cell analyzer for evaluating the extent of the inflammation. […] The mice are euthanatized by administering the Urathane in a dose of 37.5 mg/10 g. The larynx is opened, the trachea is picked out, cut and held by a forcepts and a 0.58 mm PE tube is slowly inserted the trachea for infusing 0.5 ml PBS. The PBS is incubated for 15 seconds and then collected after gently massaging the lung tissue. 1 c.c. lung lavage is obtained after the above steps are repeated twice. The lung lavage is collected and transferred into a centrifuged tube for centrifuging at 1,200 rpm at 4° C. for 6 mins. The supernatant is collected and stored at −80° C. for zymography, and the pellet is suspended in PBS for calculating the WBC count. The pellet of the alveolar lavage is suspended in PBS and transferred into an eppendorff. The amount and kind of the inflammatory cell such as WBC total, the lymphocyte, the monocyte, the neutrophil, the eosinophil and the basophil are analyzed by an automatic animal blood cell analyzer.

collagen = assay: Collagen amount, bleomycin-induced IPF mice; format: in vivo; settings: day 28 after BLM
Description: The amount of the collagen in the lung lavage is measured to reflect the fibrosis formation. […] (2) After the lung lavage is obtained, the chest of mice is opened and the lung lobes are cut one by one. […] The 1.5 ml eppendorffs are taken to arrange the calibration curve as follows. […] The eppendorff is then centrifuged at 12,000 rpm for 10 mins. The supernatant in the eppendorff is poured out slowly, 1 ml basic compound is added for dissolving the precipitation. After being violently shaken for 5 mins, the reaction is incubated for 3 hrs to stabilize the color. […] The amount of collagen is estimated through the 540 nm absorption measured by the ELISA reader.

inflammatory cells = assay: H&E stain of lung tissue sections, bleomycin mice; format: in vivo; settings: day 28
Excerpt: In the histology observation, the bleomycin-induced mice show the pathology characteristic of lung fibrosis. In the lung tissue sections of the normal control group, the structure of the lung tissue is clear and has no inflammatory cells infiltration, the alveolar wall is complete and not being broaden, the lung atrophy and the vascular wall thickening are not found, and the inflammatory cells infiltration is not found in the bronchial cavity and the alveolar cavity. […] On day 28, the alveolar is dystructured, the macrophage aggregation can be seen in part of aveoli, the fibroblast and fibric cell proliferate, and the fibers are accumulated in the lung interstitium. In the treating group, the inflammatory state is inhibited well on day 7.
The with 10% formalin treated and freezed lung is placed in a tissue dehydrating machine, and the tissue is fixed, dehydrated, washed and rinsed in turn. The tissue is further prepared as a wax-embedded tissue by a tissue embedded machine through appropriate cooling. The wax-embedded tissue is cut by a sliding microtome. The slices about 4 μm are placed on the slides and extended in 35° C.-50° C. warm water, and then dried in a 56° C.-60° C. extender for staining
The slices are successively dehydrated via 50%-99.9% ethanol, incubated in xylene for 2 hrs and the incubation step is repeated twice. […]

MMP-9 [3] = assay: OVA-induced MMP-9 expression in lung tissue, asthma mice; format: in vivo, BALB/c mice; settings: OVA + drug 5 mM spray, 30 mins/day, days 21 to 27; lung tissue; OVA + vehicle control 100%
Description: The male BALB/c mice (20-23 g) are injected (i.p.) with OVA (5 mM, 30 mins), sensitized with OVA on day 1 and day 8 via i.p injection and activated by 2 mg aluminum hydroxide to which 2 μg OVA is absorbed. […] The asthmatic animals are divided into 5 groups, wherein the control group is only administered with saline spray and the remaining experimental groups are firstly administered with 1% OVA spray and then administered with the sprays of the related complex salts respectively as shown in Table 4. The inhibition of the expression of OVA-induced MMP-9 in lung tissue of BALB/c mice is measured.

[4] = Monocrotaline (MCT)-induced pulmonary arterial hypertension, PABP; format: in vivo, male Wistar rats; settings: MCT-treated rats; for Pulmonary arterial blood pressure (PABP), in words: 2.5 mg/kg orally every day; for PABP: 2.5 mg/kg/day p.o.
Description: The rats administered MCT (60 mg/kg) are caused pulmonary artery hypertension on day 21 after the intraperitoneal injection. The KMUP-1HCl salt (2.5 mg/kg), Simvastatin (2.5 mg/kg), KMUP-1-nicotinic acid complex (2.5 mg/kg), KMUP-1-citric acid complex (2.5 mg/kg), KMUP-1-Simvastatinic Acid complex (2.5 mg/kg) and KMUP-1-γ-polyglutamic acid complex (2.5 mg/kg) orally administered, or the KMUP-1-PGI2 complex (0.1 mM) inhaled every day may inhibit the pulmonary arterial blood pressure (PABP) in MCT-treated male Wistar rats.

TGF-β = TGF-β expression, bleomycin-induced lung fibrosis (EIA); format: in vivo, mice; settings: BM 60 mg/kg
Description: The increased amount of the collagen synthesis and the macrophage generation in alveolus may facilitate the formulation of TGF-β, and the expression of TGF-β is deeming as a biomarker of the lung fibrosis. KMUP-1HCl salt (1, 2.5 and 5 mg/kg), the Simvastatin (5 mg/kg), the KMUP-1-nicotinic acid complex (2.5 mg/kg), the KMUP-1-Simvastatinic acid complex (2.5 mg/kg) and KMUP-1-γ-polyglutamic acid complex (2.5 mg/kg) are orally administered to the mice for inhibiting the lung fibrosis induced by TGF-β expression in tracheal lavage solution that resulted from 60 mg/kg BM inhalation (Table 6). The state of the TGF-β expression in the lavage is measured by the enzyme immunoassay (EIA).

MMP-9 [5] = assay: Short-term nebulization without OVA sensitization, lung tissue; format: in vivo, mice; settings: L-NAME-pretreatment 12 mM, 30 mins
Description: (§1) Short-term KMUP-1 (5 mM, 30 min) nebulization and pretreatment with L-NAME (12 mM, […]) are accomplished using a previously described method. Aerosols were generated by ultrasonic nebulizer from day 21 to 27. Mice were sacrificed on day 28. Three different experiments were performed on cohorts of 7-14 mice per experimental condition.
(§2) Please refer to FIGS. 22(B) and 23(B), the changes of eNOS and MMP-9 expression by KMUP-1 (2.5 mM, 30 mins) are reversed by L-NAME-pretreatment (12 mM, 30 mins).

eNOS = assay: as above; format: in vivo, mice; settings: L-NAME-pretreatment 12 mM, 30 mins
Description: as §1, §2

## CC[C@H]1OC(=O)[C@H](C)[C@@H](O[C@H]2C[C@@](C)(OC)[C@@H](O)[C@H](C)O2)[C@H](C)[C@@H](O[C@@H]2O[C@H](C)C[C@H](N(C)C)[C@H]2O)[C@](C)(OC)C[C@@H](C)C(=O)[C@H](C)[C@@H](O)[C@]1(C)O [Clarithromycin, reference compound]
[1]; Day 7, dose 10 mg/kg
  Body weight: 19.93 ± 3.28 g
[1]; Day 14, dose 10 mg/kg
  Body weight: 19.17 ± 3.77 g
[1]; Day 28, dose 10 mg/kg
  Body weight: 24.7 ± 1.21 g
[1]; Day −3, dose 10 mg/kg
  Body weight: 24.6 ± 1.48 g
[2]; day 7, dose 10 mg/kg
  BA (basophil): 0.02 ± 0.01
  EO (eosinophil): 0.07 ± 0.02
  LY (lymphocyte): 0.56 ± 0.17
  MO (monocyte): 0.05 ± 0.02
  NE (neutrophil): 0.2 ± 0.09
  WBC total (white blood cell total count): 0.89 ± 0.3
[2]; day 28, dose 10 mg/kg
  BA (basophil): 0.25 ± 0.16
  EO (eosinophil): 0.5 ± 0.33
  LY (lymphocyte): 1.64 ± 1.49
  MO (monocyte): 0.16 ± 0.16
  NE (neutrophil): 0.68 ± 0.57
  WBC total (white blood cell total count): 3.23 ± 0.52
collagen; dose 10 mg/kg
  The amount of collagen: 86.07 ± 0.02 μg/lung
Inflammatory cells
  Inflammation, H&E stain: still has a significant inflammation phenomenon

## Cn1c(=O)c2c(ncn2CCN2CCN(c3ccccc3Cl)CC2)n(C)c1=O [KMUP-1 HCl salt]
MMP-9 [3]
  Inhibition % of the MMP-9: 55%
[4]
  Pulmonary arterial blood pressure (PABP), in words: inhibit
  PABP: 13 ± 1.7 mmHg
TGF-β; drug 2.5 mg/kg oral
  The changing amount of TGF-β in the lung tissue: 52 ± 5.2%

## CC(=O)N[C@@H](CS)C(=O)O.Cn1c(=O)c2c(ncn2CCN2CCN(c3ccccc3Cl)CC2)n(C)c1=O [KMUP-1-Acetylcysteine]
MMP-9 [3]
  Inhibition % of the MMP-9: 68%

## Cn1c(=O)c2c(ncn2CCN2CCN(c3ccccc3Cl)CC2)n(C)c1=O.N=C(N)NCCCC(N)C(=O)O [KMUP-1-Arginine]
MMP-9 [3]
  Inhibition % of the MMP-9: 65%

## CC(C)(O)c1ccccc1CCC(SCC1(CC(=O)O)CC1)c1cccc(C=Cc2ccc3ccc(Cl)cc3n2)c1.Cn1c(=O)c2c(ncn2CCN2CCN(c3ccccc3Cl)CC2)n(C)c1=O (stereo not drawn) [KMUP-1-Montelukast]
MMP-9 [3]
  Inhibition % of the MMP-9: 70%

## Cn1c(=O)c2c(ncn2CCN2CCN(c3ccccc3Cl)CC2)n(C)c1=O.O=C(O)c1cccnc1 [KMUP-1-Nicotinic acid]
[4]
  Pulmonary arterial blood pressure (PABP), in words: inhibit
  PABP: 12 ± 2.6 mmHg
TGF-β; drug 2.5 mg/kg oral
  The changing amount of TGF-β in the lung tissue: 42 ± 3.8%

## COC(=O)[C@@H](N)CCCNC(=N)N[N+](=O)[O-] [L-NAME, reference compound]
MMP-9 [5]
  Change of MMP-9 expression by KMUP-1 (2.5 mM, 30 mins): reversed
eNOS
  Change of eNOS expression by KMUP-1 (2.5 mM, 30 mins): reversed

## CCC(C)(C)C(=O)O[C@H]1C[C@@H](C)C=C2C=C[C@H](C)[C@H](CC[C@@H]3C[C@@H](O)CC(=O)O3)[C@H]21 [Simvastatin, reference compound]
[1]; Day 7, dose 5 mg/kg
  Body weight: 17.9 ± 1.56 g
[1]; Day 14, dose 5 mg/kg
  Body weight: 19.8 ± 2.31 g
[1]; Day 28, dose 5 mg/kg
  Body weight: 20.3 ± 1.65 g
[1]; Day −3, dose 5 mg/kg
  Body weight: 23.5 ± 1.32 g
[2]; day 7, dose 5 mg/kg
  BA (basophil): 0.22 ± 0.23
  EO (eosinophil): 0.46 ± 0.4
  LY (lymphocyte): 1.5 ± 2.17
  MO (monocyte): 0.13 ± 0.19
  NE (neutrophil): 0.76 ± 0.53
  WBC total (white blood cell total count): 3.09 ± 2.98
[2]; day 28, dose 5 mg/kg
  BA (basophil): 0.22 ± 0.22
  EO (eosinophil): 0.46 ± 0.35
  LY (lymphocyte): 1.5 ± 3.03
  MO (monocyte): 0.13 ± 0.26
  NE (neutrophil): 0.76 ± 0.61
  WBC total (white blood cell total count): 3.09 ± 0.92
collagen; dose 5 mg/kg
  The amount of collagen: 140.53 ± 0.05 μg/lung
TGF-β; drug 5 mg/kg oral
  The changing amount of TGF-β in the lung tissue: 40 ± 4.3%
